Values of other authors, collected in patent US20090198080A1, “METHOD FOR THE PREPARATION OF ARYL ETHERS” (Pfizer Inc, priority 2004, published 2009).

Legend:
[1] = different animal models
8-OH-DPAT hypothermia = settings: in vivo

## CCOc1ccccc1O[C@@H](c1ccccc1)[C@@H]1CNCCO1 (racemic) [reboxetine, 2-[α-(2-ethoxyphenoxy)benzyl]morpholine]
Monoamine oxidase (MAO)
  monoamine oxidase (MAO) inhibitory activity: substantially devoid
[1]
  anticholinergic binding activity: no anticholinergic binding activity
Serotonin reuptake
  serotonin reuptake inhibitory activity: only marginal
8-OH-DPAT hypothermia
  effect in the 8-OH-DPAT hypothermia test: ineffective
Dopamine reuptake
  dopamine reuptake inhibitory activity: no dopamine reuptake inhibitory activity
Norepinephrine reuptake
  norepinephrine reuptake inhibitory activity: selective norepinephrine reuptake inhibitor
